Laboratory results from patent US20200390100A1, “SUBSTITUTED N-HETEROCYCLYL- AND N-HETEROARYL-TETRAHYDROPYRIMIDINONES AND THE SALTS THEREOF, AND THE USE OF SAME AS HERBICIDAL ACTIVE SUBSTANCES” (Bayer Aktiengesellschaft, priority 2017, published 2020).

Key:
Matricaria inodora [1] = experiment: Herbicidal pre-emergence action (Part 2), 1280 g/ha; assay type: in vivo; conditions: application rate 1280 g/ha, scored visually after about 3 weeks, Table D7
Procedure, shortened: (§1)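 Surface soil treatment over sown weed seeds in sandy loam used formulated compound in water with 0.5% additive at a 600 L/ha spray volume. Effect was rated visually in percent versus untreated plants after about three weeks of greenhouse growth.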

Stellaria media [2] = experiment: as above; assay type: in vivo; conditions: application rate 1280 g/ha, scored visually after about 3 weeks, Table D8
Procedure, shortened: as §1

Amaranthus retroflexus [3] = experiment: as above; assay type: in vivo; conditions: application rate 1280 g/ha, scored visually after about 3 weeks, Table D6
Procedure, shortened: as §1

Abutilon theophrasti [4] = experiment: as above; assay type: in vivo; conditions: application rate 1280 g/ha, scored visually after about 3 weeks, Table D5
Procedure, shortened: as §1

Setaria viridis [5] = experiment: as above; assay type: in vivo; conditions: application rate 1280 g/ha, scored visually after about 3 weeks, Table D4
Procedure, shortened: as §1

Poa annua [6] = experiment: as above; assay type: in vivo; conditions: application rate 1280 g/ha, scored visually after about 3 weeks, Table D3
Procedure, shortened: as §1

Matricaria inodora [7] = experiment: Herbicidal post-emergence action (Part 2), 1280 g/ha; assay type: in vivo; conditions: application rate 1280 g/ha, rated visually after about 3 weeks, Table C6
Procedure, shortened: (§2)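 Plants at the one-leaf stage were treated on green parts with wettable powder or emulsion concentrate preparations diluted in water containing 0.5% additive. Effects were judged by eye after about 3 weeks in the greenhouse, relative to untreated plants.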

Stellaria media [8] = experiment: as above; assay type: in vivo; conditions: application rate 1280 g/ha, rated visually after about 3 weeks, Table C7
Procedure, shortened: as §2

Amaranthus retroflexus [9] = experiment: as above; assay type: in vivo; conditions: application rate 1280 g/ha, rated visually after about 3 weeks, Table C5
Procedure, shortened: as §2

Abutilon theophrasti [10] = experiment: as above; assay type: in vivo; conditions: application rate 1280 g/ha, rated visually after about 3 weeks, Table C4
Procedure, shortened: as §2

Setaria viridis [11] = experiment: as above; assay type: in vivo; conditions: application rate 1280 g/ha, rated visually after about 3 weeks, Table C3
Procedure, shortened: as §2

Echinochloa crus-galli [12] = experiment: as above; assay type: in vivo; conditions: post-emergence (Part 2), application rate 1280 g/ha, rated visually after about 3 weeks vs untreated controls
Procedure, shortened: as §2

Poa annua [13] = experiment: as above; assay type: in vivo; conditions: application rate 1280 g/ha, rated visually after about 3 weeks, Table C2
Procedure, shortened: as §2

Matricaria inodora [14] = experiment: Pre-emergence herbicidal action, greenhouse, 320 g/ha; assay type: in vivo; conditions: application rate 320 g/ha, scored visually after about 3 weeks vs untreated controls
Procedure, shortened: (§3)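 Soil-surface application onto covered seeds; WP or EC formulation with 0.5% additive in aqueous spray; visual rating at ~3 weeks, 0–100% vs untreated plants.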

Hordeum murinum = experiment: as above; assay type: in vivo; conditions: application rate 320 g/ha, Table B14
Procedure, shortened: as §3

Stellaria media [15] = experiment: as above; assay type: in vivo; conditions: application rate 320 g/ha, scored visually after about 3 weeks vs untreated controls
Procedure, shortened: as §3

Amaranthus retroflexus [16] = experiment: as above; assay type: in vivo; conditions: application rate 320 g/ha, scored visually after about 3 weeks vs untreated controls
Procedure, shortened: as §3

Viola tricolor [17] = experiment: as above; assay type: in vivo; conditions: application rate 320 g/ha, Table B8
Procedure, shortened: as §3

Abutilon theophrasti [18] = experiment: as above; assay type: in vivo; conditions: application rate 320 g/ha, scored visually after about 3 weeks vs untreated controls
Procedure, shortened: as §3

Setaria viridis [19] = experiment: as above; assay type: in vivo; conditions: application rate 320 g/ha, Table B11
Procedure, shortened: as §3

Avena fatua = experiment: as above; assay type: in vivo; conditions: application rate 320 g/ha, scored visually after about 3 weeks vs untreated controls
Procedure, shortened: as §3

Veronica persica [20] = experiment: as above; assay type: in vivo; conditions: application rate 320 g/ha, Table B13
Procedure, shortened: as §3

Polygonum convolvulus [21] = experiment: as above; assay type: in vivo; conditions: application rate 320 g/ha, scored visually after about 3 weeks vs untreated controls
Procedure, shortened: as §3

Alopecurus myosuroides = experiment: as above; assay type: in vivo; conditions: application rate 320 g/ha, scored visually after about 3 weeks vs untreated controls
Procedure, shortened: as §3

Echinochloa crus-galli [22] = experiment: as above; assay type: in vivo; conditions: application rate 320 g/ha, scored visually after about 3 weeks vs untreated controls
Procedure, shortened: as §3

Pharbitis purpurea = experiment: Post-emergence herbicidal action, greenhouse, 320 g/ha; assay type: in vivo; conditions: application rate 320 g/ha, rated visually after about 3 weeks vs untreated controls
Procedure, shortened: (§4)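 Plants treated post-emergence at the one-leaf stage, 2 to 3 weeks after sowing in sandy loam, with WP or EC formulations plus 0.5% additive at 320 g/ha. Visual rating about 3 weeks later versus untreated controls (100% = dead, 0% = like control).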

Matricaria inodora [23] = experiment: as above; assay type: in vivo; conditions: application rate 320 g/ha, rated visually after about 3 weeks vs untreated controls
Procedure, shortened: as §4

Stellaria media [24] = experiment: as above; assay type: in vivo; conditions: application rate 320 g/ha, rated visually after about 3 weeks vs untreated controls
Procedure, shortened: as §4

Amaranthus retroflexus [25] = experiment: as above; assay type: in vivo; conditions: application rate 320 g/ha, rated visually after about 3 weeks vs untreated controls
Procedure, shortened: as §4

Viola tricolor [26] = experiment: as above; assay type: in vivo; conditions: application rate 320 g/ha, rated visually after about 3 weeks vs untreated controls
Procedure, shortened: as §4

Abutilon theophrasti [27] = experiment: as above; assay type: in vivo; conditions: application rate 320 g/ha, rated visually after about 3 weeks vs untreated controls
Procedure, shortened: as §4

Setaria viridis [28] = experiment: as above; assay type: in vivo; conditions: application rate 320 g/ha, rated visually after about 3 weeks vs untreated controls
Procedure, shortened: as §4

Digitaria sanguinalis = experiment: as above; assay type: in vivo; conditions: application rate 320 g/ha, rated visually after about 3 weeks vs untreated controls
Procedure, shortened: as §4

Veronica persica [29] = experiment: as above; assay type: in vivo; conditions: application rate 320 g/ha, rated visually after about 3 weeks vs untreated controls
Procedure, shortened: as §4

Polygonum convolvulus [30] = experiment: as above; assay type: in vivo; conditions: application rate 320 g/ha, rated visually after about 3 weeks vs untreated controls
Procedure, shortened: as §4

photosystem II (PS II) = biological target: T1, photosystem II (PS II) (Spinacia oleracea, UniProt P69560); experiment: Measurement of PS II activity in thylakoid membranes (DCPIP reduction); assay type: biochemical, spinach; conditions: PS II activity in spinach thylakoid membranes, Table E1; read-out: Effect
T1 construct: the chloroplasts were osmotically ruptured and the thylakoid membranes were then obtained by centrifugation; from tissue; host or cells: fresh spinach leaves; thylakoid membrane preparation from isolated chloroplasts
Experimental: Cooled fresh spinach leaves were comminuted and homogenized in 50 mM phosphate buffer, pH 6.8. 10 mM KCl, 0.34 M sucrose (sucrose buffer) (blender, 1 g of plant material/ml). The homogenate was subsequently filtered through 4 layers of Miracloth and the chloroplasts were isolated by centrifugation, i.e. 10 min of centrifugation at 4400×g (4° C.). The sediment was suspended in 25 ml of sucrose buffer and re-centrifuged for 10 min at 4400×g (4° C.). The sediment was then suspended in 40 ml of 50 mM phosphate buffer, pH 6.8, 10 mM KCl, without sucrose. In this step, the chloroplasts were osmotically ruptured and the thylakoid membranes were then obtained by centrifugation (10 min, 4400×g, 4° C.). The membrane sediment was finally suspended in about 20 ml of 50 mM phosphate buffer, pH 6.8, 10 mM KCl. Following protein determination and activity determination, the membrane suspension was divided into aliquots and frozen in liquid nitrogen. The aliquots were stored at −80° C. Under these conditions, the photosystem II preparation was storage stable for at least three months. The activity determination of photosystem II (PS II) was then carried out using the following test principle: The electron transfer from PS II to an artificial electron acceptor, 2,6-dichlorophenolindophenol (DCPIP), was measured with exposure to light. The concentration of the blue oxidized form of DCPIP was determined spectrophotometrically at wavelength λ=595 nm. […] The activity determination is carried out in microtiter plates (96 cavities) in a reaction volume of 200 μl. Here, 155 μl of dilute membrane suspension were initially charged in 50 mM of phosphate buffer, pH 6.8, 10 mM KCl. Depending on the activity of the PS II preparation, the dilution was adjusted such that the measurement of the decrease in absorption (λ=595 nm) was linear for at least 10 min. In each case 5 μl solutions of the test compounds of a concentration of 100 μM in DMSO were added to the enzyme suspension; controls contained 5 μl of DMSO; the final concentration of DMSO in the reaction batch was thus 2.5% (v/v); this concentration had no adverse effect on the enzymatic activity. On each microtiter plate, a known PS II inhibitor, for example metribuzin, was used as standard, which allowed the quality of the PS II test to be assessed. The reaction was started by addition of 40 μl DCPIP solution (600 μM in distilled water); the final concentration of DCPIP was 120 μM. Measurement of absorption is carried out over a period of 10 min at 22° C. and with exposure to light. Using metribuzin as comparative substance, the results for the efficacy of the compounds of the general formula (I) at 100 μM are stated in the table below using the following classification: ++++(inhibition≥90%), +++(90%>inhibition≥70%), ++(70%>inhibition≥50%), +(50%>inhibition≥30%).

Lolium rigidum = experiment: Herbicidal pre-emergence action (Part 2), 1280 g/ha; assay type: in vivo; conditions: application rate 1280 g/ha, scored visually after about 3 weeks, Table D2
Procedure, shortened: as §1

Echinochloa crus-galli [31] = experiment: as above; assay type: in vivo; conditions: application rate 1280 g/ha, scored visually after about 3 weeks, Table D1
Procedure, shortened: as §1

CN1CCC(O)N(c2cc(C(C)(C)C)n(C)n2)C1=O (stereo not drawn) [I.1-315]
Matricaria inodora (Matricaria inodora [1]): 100%
Stellaria media (Stellaria media [2]): 100%
Amaranthus retroflexus (Amaranthus retroflexus [3]): 100%
Abutilon theophrasti (Abutilon theophrasti [4]): 100%
Setaria viridis (Setaria viridis [5]): 100%
Poa Annua (Poa annua [6]): 90%
Matricaria inodora (Matricaria inodora [7]): 90%
Stellaria media (Stellaria media [8]): 100%
Amaranthus retroflexus (Amaranthus retroflexus [9]): 100%
Abutilon theophrasti (Abutilon theophrasti [10]): 100%
Setaria viridis (Setaria viridis [11]): 100%
Echinochloa crus-galli (Echinochloa crus-galli [12]): 100%
Poa Annua (Poa annua [13]): 100%

CCCC(=O)OC1CCN(C)C(=O)N1c1cc(C(C)(C)C)on1 (stereo not drawn) [I.4-162, 3-(5-tert-Butyl-1,2-oxazol-3-yl)-1-methyl-2-oxohexahydropyrimidin-4-yl Butyrate]
Matricaria inodora (efficacy in %) (Matricaria inodora [14]): 100%
Hordeum murinum (efficacy in %) (Hordeum murinum): 90%
Stellaria media (efficacy in %) (Stellaria media [15]): 100%
Amaranthus retroflexus (efficacy in %) (Amaranthus retroflexus [16]): 100%
Viola tricolor (efficacy in %) (Viola tricolor [17]): 100%
Abutilon theophrasti (efficacy in %) (Abutilon theophrasti [18]): 100%
Setaria viridis (efficacy in %) (Setaria viridis [19]): 100%
Avena fatua (efficacy in %) (Avena fatua): 90%
Veronica persica (efficacy in %) (Veronica persica [20]): 100%
Polygonum convolvulus (efficacy in %) (Polygonum convolvulus [21]): 90%
Alopecurus myosuroides (efficacy in %) (Alopecurus myosuroides): 90%
Echinochloa crus-galli (efficacy in %) (Echinochloa crus-galli [22]): 90%
Pharbitis purpurea (efficacy in %) (Pharbitis purpurea): 100%
Matricaria inodora (efficacy in %) (Matricaria inodora [23]): 100%
Stellaria media (efficacy in %) (Stellaria media [24]): 100%
Amaranthus retroflexus (efficacy in %) (Amaranthus retroflexus [25]): 100%
Viola tricolor (efficacy in %) (Viola tricolor [26]): 90%
Abutilon theophrasti (efficacy in %) (Abutilon theophrasti [27]): 100%
Setaria viridis (efficacy in %) (Setaria viridis [28]): 100%
Digitaria sanguinalis (efficacy in %) (Digitaria sanguinalis): 80%
Veronica persica (efficacy in %) (Veronica persica [29]): 100%
Polygonum convolvulus (efficacy in %) (Polygonum convolvulus [30]): 100%
inhibition at 100 µM (photosystem II (PS II)): 50 to 70%

CC(C)C(=O)OC1CCN(C)C(=O)N1c1cc(C(C)(C)C)on1 (stereo not drawn) [I.5-162]
Matricaria inodora (Matricaria inodora [1]): 100%
Stellaria media (Stellaria media [2]): 100%
Amaranthus retroflexus (Amaranthus retroflexus [3]): 100%
Lolium rigidum (Lolium rigidum): 90%
Abutilon theophrasti (Abutilon theophrasti [4]): 100%
Setaria viridis (Setaria viridis [5]): 100%
Echinochloa crus-galli (Echinochloa crus-galli [31]): 100%
Poa Annua (Poa annua [6]): 100%
Matricaria inodora (Matricaria inodora [7]): 100%
Stellaria media (Stellaria media [8]): 100%
Amaranthus retroflexus (Amaranthus retroflexus [9]): 100%
Abutilon theophrasti (Abutilon theophrasti [10]): 100%
Setaria viridis (Setaria viridis [11]): 100%
Echinochloa crus-galli (Echinochloa crus-galli [12]): 100%
Poa Annua (Poa annua [13]): 100%
